In patent publication US10246429B2, “Vinyl fluoride cyclopropyl fused thiazin-2-amine compounds as beta-secretase inhibitors and methods of use” (AMGEN INC., priority 2015, dated 2019):

Legend:
[1] = target: BACE1 (Homo sapiens (Human), UniProt P56817); assay: BACE1 cell assay; type: cell-based
[2] = target: BACE2 (Homo sapiens (Human), UniProt Q9Y5Z0); assay: In vitro enzymatic BACE2 FRET assay; type: biochemical; settings: read-out: IC50 IP (μM) BACE2 Enzyme
Excerpt: In Vitro Enzymatic BACE1 and BACE2 FRET (Fluorescence Resonance Energy Transfer) Assays (Enzyme Assay Data in Table 1)

[3] = target: Cathepsin D (CatD) (Homo sapiens (Human), UniProt P07339); assay: CatD assay; type: biochemical; settings: read-out: IC50 IP (μM) CatD
Cathepsin D (CatD), sequence (P07339 65-412, species assumed): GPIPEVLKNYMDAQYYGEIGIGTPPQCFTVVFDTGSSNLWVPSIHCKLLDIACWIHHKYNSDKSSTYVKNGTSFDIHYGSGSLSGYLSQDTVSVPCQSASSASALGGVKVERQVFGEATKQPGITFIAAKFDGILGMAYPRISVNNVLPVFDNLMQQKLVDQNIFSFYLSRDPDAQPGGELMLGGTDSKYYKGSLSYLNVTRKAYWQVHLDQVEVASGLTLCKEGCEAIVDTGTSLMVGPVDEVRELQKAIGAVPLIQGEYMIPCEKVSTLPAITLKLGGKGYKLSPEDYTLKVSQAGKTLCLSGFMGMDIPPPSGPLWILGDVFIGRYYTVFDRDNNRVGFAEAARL

BACE2, sequence (Q9Y5Z0 63-518): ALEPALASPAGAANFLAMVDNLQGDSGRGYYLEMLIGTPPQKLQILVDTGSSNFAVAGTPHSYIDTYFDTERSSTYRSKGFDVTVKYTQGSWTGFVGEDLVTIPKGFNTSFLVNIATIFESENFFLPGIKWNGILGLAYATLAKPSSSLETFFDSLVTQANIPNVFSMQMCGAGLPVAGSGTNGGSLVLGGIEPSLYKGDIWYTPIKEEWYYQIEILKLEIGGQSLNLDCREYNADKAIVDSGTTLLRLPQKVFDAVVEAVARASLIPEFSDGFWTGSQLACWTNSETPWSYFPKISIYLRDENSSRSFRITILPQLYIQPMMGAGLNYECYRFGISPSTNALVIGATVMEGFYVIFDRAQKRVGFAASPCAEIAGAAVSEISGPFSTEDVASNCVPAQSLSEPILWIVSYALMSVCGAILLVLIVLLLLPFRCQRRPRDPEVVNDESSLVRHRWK
BACE1, sequence (P56817 46-501, species assumed): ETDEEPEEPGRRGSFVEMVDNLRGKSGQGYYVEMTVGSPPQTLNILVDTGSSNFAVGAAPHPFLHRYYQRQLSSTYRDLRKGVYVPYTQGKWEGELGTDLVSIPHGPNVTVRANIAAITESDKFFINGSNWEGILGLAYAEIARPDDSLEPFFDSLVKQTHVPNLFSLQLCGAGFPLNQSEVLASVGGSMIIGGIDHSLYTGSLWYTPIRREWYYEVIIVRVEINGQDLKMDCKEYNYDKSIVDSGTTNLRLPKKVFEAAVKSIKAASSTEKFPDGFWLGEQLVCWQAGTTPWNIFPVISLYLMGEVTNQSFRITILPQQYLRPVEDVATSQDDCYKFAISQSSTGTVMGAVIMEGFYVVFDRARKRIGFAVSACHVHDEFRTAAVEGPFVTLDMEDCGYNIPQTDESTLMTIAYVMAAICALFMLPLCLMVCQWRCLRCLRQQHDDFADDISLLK

Row | SMILES | IC50 [1] [µM] | IC50 [2] [µM] | IC50 [3] [µM]
1 | CNC(=O)[C@]12C[C@H]1[C@@](C)(c1cc(/C=C(\F)c3cc4c(cn3)OCCO4)ccc1F)N=C(N)S2 [Example 249, (1S,5S,6S)-3-amino-5-(5-((Z)-2-(2,3-dihydro-[1,4]dioxino[2,3-c]pyridin-7-yl)-2-fluorovinyl)-2-fluorophenyl)-N,5-dimethyl-2-thia-4-azabicyclo[4.1.0]hept-3-ene-1-carboxamide] | 0.336 |  | 
2 | COC[C@]12C[C@H]1[C@@](C)(c1cc(/C=C(\F)c3cnc(OCC4CC(F)(F)C4)cn3)ccc1F)N=C(N)S2 [Example 278] |  | 1.32 | 199
3 | CN(C)C(=O)[C@]12C[C@H]1[C@@](C)(c1cc(/C=C(\F)c3cnc(OCC(F)(F)F)cn3)cnc1F)N=C(N)S2 [Example 282, (1S,5S,6S)-3-amino-5-(2-fluoro-5-((Z)-2-fluoro-2-(5-(2,2,2-trifluoroethoxy)pyrazin-2-yl)vinyl)pyridin-3-yl)-N,N,5-trimethyl-2-thia-4-azabicyclo[4.1.0]hept-3-ene-1-carboxamide] |  | 0.125 | 287
4 | C#CCOc1cnc(/C(F)=C/c2cnc(F)c([C@@]3(C)N=C(N)S[C@@]4(C(=O)O)C[C@H]43)c2)cn1 [Example 285, (1S,5S,6S)-3-amino-5-(2-fluoro-5-((Z)-2-fluoro-2-(5-(prop-2-yn-1-yloxy)pyrazin-2-yl)vinyl)pyridin-3-yl)-5-methyl-2-thia-4-azabicyclo[4.1.0]hept-3-ene-1-carboxylic acid] |  | 6.35 | 316
5 | CC(=O)COc1cnc(/C(F)=C/c2cnc(F)c([C@@]3(C)N=C(N)S[C@@]4(C(=O)N(C)C)C[C@H]43)c2)cn1 [Example 288, (1S,5S,6S)-3-amino-5-(2-fluoro-5-((Z)-2-fluoro-2-(5-(2-oxopropoxy)pyrazin-2-yl)vinyl)pyridin-3-yl)-N,N,5-trimethyl-2-thia-4-azabicyclo[4.1.0]hept-3-ene-1-carboxamide] |  | 0.294 | 175
6 | C[C@@H]1COCCN1C(=O)[C@]12C[C@H]1[C@@](C)(c1cc(/C=C(\F)c3ccc(C#N)cn3)cnc1F)N=C(N)S2 [Example 290, 6-((Z)-2-(5-((1S,5S,6S)-3-amino-5-methyl-1-((R)-3-methylmorpholine-4-carbonyl)-2-thia-4-azabicyclo[4.1.0]hept-3-en-5-yl)-6-fluoropyridin-3-yl)-1-fluorovinyl)nicotinonitrile] |  | 0.229 | 400
7 | C[C@]1(O)CCN(C(=O)[C@]23C[C@H]2[C@@](C)(c2cc(/C=C(\F)c4ccc(C#N)cn4)ccc2F)N=C(N)S3)C1 [Example 309, 6-((Z)-2-(3-((1S,5S,6S)-3-amino-1-((S)-3-hydroxy-3-methylpyrrolidine-1-carbonyl)-5-methyl-2-thia-4-azabicyclo[4.1.0]hept-3-en-5-yl)-4-fluorophenyl)-1-fluorovinyl)nicotinonitrile] |  | 0.007 | 401
8 | C[C@]1(c2cc(/C=C(\F)c3cnc(N4CCC4)cn3)ccc2F)N=C(N)S[C@@]2(C(=O)N3CCOCC3)C[C@H]21 [Example 351, ((1S,5S,6S)-3-amino-5-(5-((Z)-2-(5-(azetidin-1-yl)pyrazin-2-yl)-2-fluorovinyl)-2-fluorophenyl)-5-methyl-2-thia-4-azabicyclo[4.1.0]hept-3-en-1-yl)(morpholino)methanone] |  | 1.56 | 52.6
9 | CNC(=O)[C@]12C[C@H]1[C@@](C)(c1cc(/C=C(\F)c3ccc(C#CC(C)(C)C)cn3)ccc1F)N=C(N)S2 [Example 359, (1S,5S,6S)-3-amino-5-(5-((Z)-2-(5-(3,3-dimethylbut-1-yn-1-yl)pyridin-2-yl)-2-fluorovinyl)-2-fluorophenyl)-N,5-dimethyl-2-thia-4-azabicyclo[4.1.0]hept-3-ene-1-carboxamide] |  | 0.794 | 26
